SMILES strings stand for the structures.

One series is described as follows: Partition coefficient (log P 1-octanol/water) of organic co-solvents.
Conditions: not given
An excerpt: The hydrophilicity of the organic co-solvent can be quantified as a partition coefficient. As used herein, “partition coefficient” refers to a concentration ratio of a compound in an equilibrium mixture of two immiscible phases, and can be a measure of the difference in solubility of the compound in the two immiscible phases. Formula I provides an equation of quantifying the hydrophilicity of the organic co-solvents of the present disclosure, as follows: […]
In the case of `CC1(C)NC(=O)NC1=O` [5,5-dimethyl hydantoin], the “Partition Coefficient (log P1-octanol/water)” value was −0.40. The same measure, in the same setting: under `CCCCCCCCO` [Ink 1-octanol, 1-octanol] stands 2.34; under `O=C1CCCN1CCO` [N-(2-hydroxyethyl)-2-pyrrolidinone], −0.40; under `CC1(C)C(=O)N(CCO)C(=O)N1CCO` [di-(2-hydroxyethy)-5,5-dimethylhydantoin], −1.39. Same read-out and setting: in the case of `OCCOCCOCCO` [triethylene glycol] it was −1.00; in that of `O` [water], −0.825.

Still in this series, the particulars now being: equilibrium mixture of 1-octanol and water.
As to `O=C1CCCN1` [2-pyrrolidone], the “Partition Coefficient (log P1-octanol/water)” value is reported as −0.10.

Regarding `CCC(CO)(CO)CO` [ethylhydroxy propanediol], the “Partition Coefficient (log P1-octanol/water)” value was −0.50.

The record behind these values is US20210277264A1, “INK COMPOSITIONS” (HEWLETT-PACKARD DEVELOPMENT COMPANY, L.P., priority 2018, published 2021).
